Measured values as given in patent publication US7737119B2, “Cosmetic or pharmaceutical composition comprising peptides, uses and treatment processes” (Societe d'Extraction des Principes Actifs S.A., priority 2002, dated 2010).
Where no end group is shown, it is not given here.

How the values were obtained:
[1] = Stability of peptide in culture medium conditioned by human fibroblasts and keratinocytes (released enzymes of degradation); format: in vitro ADME; conditions: after 24 hours in culture medium withdrawn from human fibroblasts and keratinocytes cultured 24 hours at 37° C.
Method: Human fibroblasts and keratinocytes were cultured during 24 hours at 37° C. and to 5% of CO2. For this period, the cells will release numerous enzymes of degradation in the culture medium. Thereafter, the culture medium is withdrawn to be put in the presence of peptide.

[2] = system: fibroblasts as well as human keratinocytes in culture; test: Peptide applied to cells in culture, HPLC analysis of the culture medium; format: cell-based; conditions: peptide applied to fibroblasts and human keratinocytes in culture, in a few hours
Method: A test is performed by applying the peptide to fibroblasts as well as to human keratinocytes in culture.

[3] = Stability of peptide in solution by HPLC (C18) at various temperatures; format: physicochemical; conditions: 10^−4 M
Method: Peptide SEQ ID NO: 3 Arg-Asp-Phe-Thr-Lys-Ala-Thr-Asn-Ile-Arg-Leu-Arg-Phe-Leu-Arg was analyzed with a concentration of 10^−4 M by HPLC on a C18 type column, and with a linear gradient water/TFA 0.1%-acetonitrile/TFA 0.1%.

keratin = test: Immunofluorescence study of keratin expression in ex vivo human skin samples; format: cell-based; conditions: 48 hours
Method: (§1) Human fibroblasts are plated in Labteks then cultured for one night. After rinsing with HBS buffer, a composition containing 1% of a solution at 100 ppm of the peptide SEQ ID NO: 5, or a control composition containing no peptide, is added. The cells are then incubated for 48 hours. After performing the elimination of the supernatants and rinsing the cultures, the cells are fixed with paraformaldehyde for 30 minutes at 4° C. then rinsed with PBS buffer.
(§2) 200 μL of anti-fibronectin antibody or anti-collagen I, or anti-collagen III polyclonal antibody obtained in the rabbit (TEBU) are then added. Incubation lasts 30 minutes at room temperature. The supernatants are eliminated and the cells are rinsed with PBS. 200 μL of secondary antibody, coupled to a fluorescent marker (Alexa-fluor 488) are then added. After 30 minutes of incubation at room temperature, the supernatants are eliminated and the cells are rinsed with the PBS.
(§3) The slides are then assembled and examined under epi-fluorescence microscope (Nikon Eclipse E600). The quantities of fibronectine and/or collagen of the type I and III, synthesized by the cells, are proportional to fluorescence intensity.
A study by immunofluorescence technique, identical to that of Example 3, was performed on ex vivo human skin samples, with anti-keratin monoclonal antibody (Novocastra).

type III collagen = test: Immunofluorescence study of type III collagen expression in human fibroblasts; format: cell-based; conditions: 1% of a solution at 100 ppm of peptide, 48 hours
Method: (§4) The immunofluorescence is a semi-quantitative technique which makes it possible to appreciate the rate of each protein present in the cellular cytoplasm.
as §1, §2, §3

β1 integrin = test: Immunofluorescence study of β1 integrin expression in HaCat human keratinocytes; format: cell-based; conditions: 48 hours
Method: as §1, §2, §3
(§5) A study by immunofluorescence technique, identical to that of example 3, was performed on HaCat human keratinocytes, with anti-laminin-5 antibodies and/or β1 anti-integrin antibodies.

type I collagen = test: Immunofluorescence study of type I collagen expression in human fibroblasts; format: cell-based; conditions: 1% of a solution at 100 ppm of peptide, 48 hours
Method: as §4, §1, §2, §3

fibronectin = test: Immunofluorescence study of fibronectin expression in human fibroblasts; format: cell-based; conditions: 1% of a solution at 100 ppm of peptide, 48 hours
Method: as §4, §1, §2, §3

laminin-5 = test: Immunofluorescence study of laminin-5 expression in HaCat human keratinocytes; format: cell-based; conditions: 48 hours
Method: as §1, §2, §3, §5

keratinocytes = test: Adhesion between cutaneous cells, MTT reading of adherent keratinocytes in 96 well micro-plates; format: cell-based; conditions: after 3 hours of contact with the keratinocytes; compared with the other peptides tested
Method: The study is performed in 96 well micro-plates on keratinocytes cultured in an incubator at 37° C. and 5% of CO2.
The wells are pre-treated during 12 hours in a different way; four conditions are thus performed: • Condition A: negative control, containing no peptide; • Condition B: incubated with various peptides, made of 3 to 25 amino acids (from the extracellular matrix), with a concentration from 5 to 50 ppm; • Condition C: incubated with the peptide of sequence Arg-Asp-Phe-Thr-Lys-Ala-Thr-Asn-Ile-Arg-Leu-Arg-Phe-Leu-Arg (SEQ ID NO: 3) to a concentration of 5 ppm.
After 3 hours of contact with the keratinocytes, the wells are completely filled with culture medium, hermetically closed, turned over and agitated on a three-dimensional agitator during 20 minutes. Then the plates are emptied and the medium remaining is aspired. 100 μl of MTT with 1 mg/ml per well is added and is left during 3 hours at 37° C. and 5% of CO2. The solution is finally withdrawn and 100 μl of DMSO is added. A reading of C is made at 560 nm against 630 nm.
The results present the various Optical Density (O.D.) obtained according to the various conditions. The O.D. is proportional to the quantity of viable cells, that is to say those which adhered to the micro-plates.

Question: For “RDFTKATNIRLRFLR [SEQ ID NO: 3, Arg-Asp-Phe-Thr-Lys-Ala-Thr-Asn-Ile-Arg-Leu-Arg-Phe-Leu-Arg]”, which “degradation of the peptide” value [1] is on record?
Answer: almost no degradation

Question: And the “peptide concentration in the culture medium” value [2]?
Answer: decreases quickly

Question: What about the “degradation of the peptide” value ([3]; after 24 hours at 25° C., 37° C. and 60° C.) of the same substance?
Answer: no degradation

Question: What about the “degradation of the peptide” value ([3]; after 8 days at 25° C.) of the same substance?
Answer: does not present degradation

Question: For IRLRFLR [SEQ ID NO: 4], which “keratin expression (fluorescence intensity)” value (keratin) is on record?
Answer: increases

Question: Which results are given for “Ile-Arg-Leu-Arg-Phe-Leu-Arg-NH2 (IRLRFLR-NH2) [SEQ ID NO: 5]”?
Answer: type III collagen synthesis (fluorescence intensity) (type III collagen): increases; β1 integrin synthesis (fluorescence intensity) (β1 integrin): increase; type I collagen synthesis (fluorescence intensity) (type I collagen): increases; fibronectin synthesis (fluorescence intensity) (fibronectin): increases; laminin-5 synthesis (fluorescence intensity) (laminin-5): increase

Question: Which cell adhesion (keratinocytes) does the source give for DFTKATNIRLRFLR [SEQ ID NO: 11] here?
Answer: very good cell adhesion
